Values joined by “and” are separate entries in the source; they are usually repeats but may differ in a detail not shown here. Equal entries are not always repeated.
Columns and labels:
Type in all cases: cell-based, human
[1] = test system: HBL-100 cells; experiment: Annexin V-FITC/PI assay, HBL-100; conditions: 16 h
Protocol: Briefly, after exposing the cells to the tested and control compounds for 16 h, the cells were detached with accutase (HiMedia Laboratories, Maharashtra, India) and washed with cold PBS. Then, the cells were re-suspended in 100 μL of 1 × Binding Buffer at concentration 1 × 10^6 cells/mL and incubated with 5 μL Annexin V-FITC and 5 μL propidium iodide (PI) for 15 min at room temperature in darkness. After incubation, 400 μL of 1 × Binding Buffer was added to each tube. The samples were analyzed by flow cytometry (CytoFlex S, Beckman Coulter, Brea, CA, USA) within 1 h of staining, and the findings were analyzed using a trial version of the Kaluza software (Beckman Coulter, Brea, CA, USA).

[2] = test system: HBL-100/Dox cells; experiment: Cell cycle analysis (DAPI, flow cytometry), HBL-100/Dox; conditions: for Cell cycle of HBL-100/Dox, G0/G1 / Cell cycle of HBL-100/Dox, G2/M / Cell cycle of HBL-100/Dox, subG0/G1 / Cell cycle of HBL-100/Dox, S-phase: dose = IC50
Protocol: (§1) The cells were trypsinized and rinsed with the growth medium. Then, the cells were harvested by centrifugation at 500× g for 3 min, and the supernatant was discarded. The cells were washed with PBS (PanEco, Moscow, Russia) twice and centrifuged under similar conditions. The cells were resuspended in 500 μL of PBS, put into centrifuge tubes and fixed by adding 4.5 mL of 70% ethanol dropwise (on ice). The samples were fixed at 4 °C. Overnight, the fixed cells were centrifugally collected (1000× g, 4 °C, 5 min) and washed again with PBS. The cells were finally resuspended in DAPI with 0.1% Triton X-100 in PBS solution (10 μg/mL, Sigma–Aldrich, St. Louis, MO, USA), and stained for 30 min at room temperature in darkness. For each sample, at least 50,000 cells were analyzed using the CytoFlex S flow cytometer (Beckman Coulter, Brea, CA, USA). Cell cycle populations were quantified from DNA histograms with the FlowJo software (ver. X 10.0.7r2, FlowJo Software, San Jose, CA, USA).

[3] = test system: HBL-100 cells; experiment: Cell cycle analysis (DAPI, flow cytometry), HBL-100; conditions: for Cell cycle of HBL-100, G0/G1 / Cell cycle of HBL-100, G2/M / Cell cycle of HBL-100, S-phase / Cell cycle of HBL-100, subG0/G1: dose = IC50
Protocol: as §1

SMILES: COC(=O)[C@]12CC[C@@H](C(C)C)[C@@H]1[C@H]1CC[C@@H]3[C@@](C)(CCC#N)[C@H](C(=O)C(Br)Br)CC[C@@]3(C)[C@]1(C)CC2 [compound 31, 2-Cyano-24,24-dibromo-4-oxo-3,4-seco-3,23-dinorlupan-28-oic acid methyl ester]
- Dead cells ([1]; dose 2xIC50): 5.59±0.46%
- Late apoptotic cells ([1]; dose 2xIC50): 10.37 ± 1.01%
- Viable cells ([1]; dose 2xIC50): 76.73 ± 1.18%
- Early apoptotic cells ([1]; dose 2xIC50, listed as MK): 7.29 ± 0.28% and 7.29±0.29%
- Dead cells ([1]; dose IC50): 2.69±0.13%
- Late apoptotic cells ([1]; dose IC50): 3.59 ± 0.82%
- Early apoptotic cells ([1]; dose IC50, listed as MK): 4.43±0.49%
- Viable cells ([1]; dose IC50, listed as MK): 89.57 ± 0.93% and 89.58±0.94%
- Cell cycle of HBL-100/Dox, G0/G1 ([2]; 12 h): 50.93±0.43%
- Cell cycle of HBL-100/Dox, G2/M ([2]; 12 h): 18.38±0.34%
- Cell cycle of HBL-100/Dox, subG0/G1 ([2]; 12 h): 4.84 ± 1.48%
- Cell cycle of HBL-100/Dox, S-phase ([2]; 12 h, listed as MK): 30.69 ± 0.99% and 30.69±0.04%
- Cell cycle of HBL-100/Dox, G0/G1 ([2]; 13 h): 47.82±0.67%
- Cell cycle of HBL-100/Dox, G2/M ([2]; 13 h): 17.42±0.46%
- Cell cycle of HBL-100/Dox, S-phase ([2]; 13 h): 34.76±0.20%
- Cell cycle of HBL-100/Dox, subG0/G1 ([2]; 13 h): 4.89±0.48%
- Cell cycle of HBL-100/Dox, G0/G1 ([2]; 14 h): 51.68±1.34%
- Cell cycle of HBL-100/Dox, G2/M ([2]; 14 h): 14.54±0.25%
- Cell cycle of HBL-100/Dox, S-phase ([2]; 14 h): 33.78±1.08%
- Cell cycle of HBL-100/Dox, subG0/G1 ([2]; 14 h): 4.87±0.60%
- Cell cycle of HBL-100/Dox, G0/G1 ([2]; 15 h): 52.12±1.18%
- Cell cycle of HBL-100/Dox, G2/M ([2]; 15 h): 14.52±1.40%
- Cell cycle of HBL-100/Dox, S-phase ([2]; 15 h): 33.36±2.57%
- Cell cycle of HBL-100/Dox, subG0/G1 ([2]; 15 h): 5.06±0.09%
- Cell cycle of HBL-100/Dox, G0/G1 ([2]; 16 h): 51.84±0.88%
- Cell cycle of HBL-100/Dox, G2/M ([2]; 16 h): 22.22±1.70%
- Cell cycle of HBL-100/Dox, S-phase ([2]; 16 h): 25.94±2.58%
- Cell cycle of HBL-100/Dox, subG0/G1 ([2]; 16 h): 6.55±0.11%
- Cell cycle of HBL-100/Dox, G0/G1 ([2]; 17 h): 52.16 ± 1.94%
- Cell cycle of HBL-100/Dox, G2/M ([2]; 17 h): 19.82±0.60%
- Cell cycle of HBL-100/Dox, S-phase ([2]; 17 h): 28.02±1.34%
- Cell cycle of HBL-100/Dox, subG0/G1 ([2]; 17 h): 9.08±0.39%
- Cell cycle of HBL-100/Dox, G0/G1 ([2]; 18 h): 57.26±1.18%
- Cell cycle of HBL-100/Dox, G2/M ([2]; 18 h): 25.55±1.12%
- Cell cycle of HBL-100/Dox, S-phase ([2]; 18 h): 17.19±2.31%
- Cell cycle of HBL-100/Dox, subG0/G1 ([2]; 18 h): 10.42±0.98%
- Cell cycle of HBL-100/Dox, G0/G1 ([2]; 24 h): 64.14 ± 0.55%
- Cell cycle of HBL-100/Dox, S-phase ([2]; 24 h): 8.99 ± 0.42%
- Cell cycle of HBL-100/Dox, G2/M ([2]; 24 h, listed as MK): 26.87 ± 1.13% and 26.87±0.13%
- Cell cycle of HBL-100/Dox, subG0/G1 ([2]; 24 h, listed as MK): 13.47 ± 2.44% and 13.47±0.18%
- effect on cell cycle progression ([2]; HBL-100/Dox (resistant) cells, 12-24 h, IC50): blocked or slowed down the cell cycle progression through the G0/G1 phase
- Cell cycle of HBL-100, G0/G1 ([3]; 12 h): 59.78±0.94%
- Cell cycle of HBL-100, G2/M ([3]; 12 h): 15.88±0.50%
- Cell cycle of HBL-100, S-phase ([3]; 12 h): 24.35±0.43%
- Cell cycle of HBL-100, subG0/G1 ([3]; 12 h): 1.44 ± 0.44%
- Cell cycle of HBL-100, G0/G1 ([3]; 13 h): 56.56±0.16%
- Cell cycle of HBL-100, G2/M ([3]; 13 h): 16.70±0.71%
- Cell cycle of HBL-100, S-phase ([3]; 13 h): 26.74±0.54%
- Cell cycle of HBL-100, subG0/G1 ([3]; 13 h): 1.74±0.05%
- Cell cycle of HBL-100, G0/G1 ([3]; 14 h): 56.69±0.01%
- Cell cycle of HBL-100, G2/M ([3]; 14 h): 16.96±0.16%
- Cell cycle of HBL-100, S-phase ([3]; 14 h): 26.35±0.16%
- Cell cycle of HBL-100, subG0/G1 ([3]; 14 h): 1.74±0.18%
- Cell cycle of HBL-100, G0/G1 ([3]; 15 h): 57.83±1.04%
- Cell cycle of HBL-100, G2/M ([3]; 15 h): 16.29±0.55%
- Cell cycle of HBL-100, S-phase ([3]; 15 h): 25.88±0.49%
- Cell cycle of HBL-100, subG0/G1 ([3]; 15 h): 2.38±0.42%
- Cell cycle of HBL-100, G0/G1 ([3]; 16 h): 56.91±0.07%
- Cell cycle of HBL-100, G2/M ([3]; 16 h): 18.83±0.14%
- Cell cycle of HBL-100, S-phase ([3]; 16 h): 24.26±0.08%
- Cell cycle of HBL-100, subG0/G1 ([3]; 16 h): 4.89±1.93%
- Cell cycle of HBL-100, G0/G1 ([3]; 17 h): 55.78±0.79%
- Cell cycle of HBL-100, G2/M ([3]; 17 h): 18.39±1.04%
- Cell cycle of HBL-100, S-phase ([3]; 17 h): 25.83±0.24%
- Cell cycle of HBL-100, subG0/G1 ([3]; 17 h): 3.50±0.42%
- Cell cycle of HBL-100, G0/G1 ([3]; 18 h): 56.81±0.03%
- Cell cycle of HBL-100, G2/M ([3]; 18 h): 15.38±0.01%
- Cell cycle of HBL-100, S-phase ([3]; 18 h): 27.81±0.04%
- Cell cycle of HBL-100, subG0/G1 ([3]; 18 h): 4.39±0.82%
- Cell cycle of HBL-100, G0/G1 ([3]; 24 h): 66.48 ± 1.33%
- Cell cycle of HBL-100, G2/M ([3]; 24 h): 4.43 ± 0.50%
- Cell cycle of HBL-100, S-phase ([3]; 24 h): 29.09±0.89%
- Cell cycle of HBL-100, subG0/G1 ([3]; 24 h): 8.22 ± 0.59%
- effect on cell cycle progression ([3]; HBL-100 (parental) cells, 12-24 h, IC50): blocked or slowed down the cell cycle progression through the G0/G1 phase
